Source: patent publication US20230227838A1, “ENHANCED CELL SURVIVAL AGAINST BIOTIC AND ABIOTIC STRESSES THROUGH SALICYLICK ACID-INDUCED NPR1 CONDENSATES” (priority 2020, published 2023)
Numbering of substitutions follows the chain as printed. “Also recorded” adds a separate entry of the source.

B1: sim3: SUMOylation-deficient mutant of NPR1 (protein)
chain: MDTTIDGFADSYEISSTSFVATDNTDSSIVYLAAEQVLTGPDVSALQLLSNSFESVFDSPDDFYSDAKLVLSDGREVSFHRCVLSARSSFFKSALAAAKKEKDSNNTAAVKLELKEIAKDYEVGFDSVVTVLAYVYSSRVRPPPKGVSECADENCCHVACRPAVDFMLEVLYLAFIFKIPELITLYQRHLLDVVDKVVIEDTLVILKLANICGKACMKLLDRCKEIIVKSNVDMVSLEKSLPEELVKEIIDRRKELGLEVPKVKKHVSNVHKALDSDDIELVKLLLKEDHTNLDDACALHFAVAYCNVKTATDLLKLDLADVNHRNPRGYTVLHVAAMRKEPQLAASALEKGASASEATLEGRTALMIAKQATMAVECNNIPEQCKHSLKGRLCVEILEQEDKREQIPRDVPPSFAVAADELKMTLLDLENRVALAQRLFPTEAQAAMEIAEMKGTCEFIVTSLEPDRLTGTKRTSPGVKIAPFRILEEHQSRLKALSKTVELGKRFFPRCSAVLDQIMNCEDLTQLACGEDDTAEKRLQKKQRYMEIQETLKKAFSEDNLELGNSSLTDSTSSTSKSTGGKRSNRKLSHRRR
modifications: left off: small tags and cut ends
notes: SUMOylation-deficient mutant of NPR1
B2: S55/59D: phosphomimic mutant of NPR1 at S55/59 (protein)
chain: B1 chain with S55D, S59D, A345I, A346L, A348L
modifications: left off: small tags and cut ends

Assays:
[1] = system: CUL3; assay: Co-IP of Myc-CUL3 with HA-fused NPR1 or variants; type: binding, Arabidopsis thaliana; details: for CUL3 pull-down signal in co-IP: 1 mM SA for 5 hr
[2] = system: cytoplasmic condensates (SINCs); assay: Confocal imaging of localization and condensate (body) formation of GFP-fused NPR proteins and variants; type: cell-based, Nicotiana benthamiana; details: for SA-induced cytoplasmic body/condensate (SINC) formation: 5 mM SA for 2 hr
In short: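 GFP fusions transiently expressed in N. benthamiana by Agrobacterium infiltration (OD600 1). For NPR1-GFP, 4-day Arabidopsis seedlings were vacuum-infiltrated and, at 48 hpi, soaked 2 h in water or SA. Airyscan confocal, 40× water objective, GFP ex 488 nm/em 505-530 nm; condensate number, size and intensity scored by automated thresholding.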

[3] = 5 mM SA, single-cell imaging for 2 hr starting 40 min after induction

| Molecule | NPR1-CUL3 and sim3-CUL3 interaction under dose response to SA ([1]; 0-1 mM SA, 5 hr) | SA-induced cytoplasmic body/condensate (SINC) formation [2] | number of bodies, time-lapse [2, 3] | total fluorescence from each body, time-lapse [2, 3] | CUL3 pull-down signal in co-IP [1] | condensate formation at lower SA concentration ([2]; 1 mM SA for 5 hr) |
| --- | --- | --- | --- | --- | --- | --- |
| O=C(O)c1ccccc1O [SA, salicylic acid] | increase in the interaction |  |  |  |  |  |
| NPR1: wild-type Arabidopsis thaliana NPR1 protein, positive regulator of systemic acquired resistance |  | significant SA-inducible cytoplasmic body formation | started to decrease after 50 min | gradual increase in the signal intensity over time | weak pull-down signal of CUL3 |  |
| B1 |  |  |  |  | significantly stronger CUL3 pull-down signals | could form condensates at a lower concentration of SA |
| B2 |  | inability to form SINCs; also recorded: fail to form cytoplasmic condensates |  |  | very little signal |  |
